Values after ≈ are worked out from the molar mass of the structure shown.
Tests used:
[1] = system: SPN 6305 (Streptococcus pneumoniae (ATCC6305)); assay: Microtitre plate assay, IC90 determination; assay type: cell-based; settings: for IC90 (μg/ml) SPN 6305: Streptococcus pneumoniae (ATCC6305); for IC90: Streptococcus pneumoniae, ATCC6305, Streptococcus pneumoniae (ATCC6305), read-out: IC90 (μg/ml) SPN 6305
Method: (§1) The bacteria used in this study were grown overnight in flasks containing 100 ml Mueller-Hinton Broth (Becton Dickinson—cat. no. 275730) in sterile de-ionized water, with shaking, at 37° C. Stocks (0.5 ml/tube) were stored at −70° C. until use. Bacteria titrations were performed in microtiter plates and colony forming units (CFUs) were determined. In general, an inoculum level of approximately 100 CFUs was used for susceptibility testing.
(§2) Flat-bottom, sterile 96-well plastic microtiter plates were filled with 180 μl of sterile deionized water, supplemented with 0.25% BSA. Subsequently, stock solutions (7.8× final test concentration) of compounds were added in 45 μl volumes in column 2. Serial five-fold dilutions (45 μl in 180 μl) were made directly in the microtiter plates from column 2 to reach column 11. Untreated control samples with (column 1) and without (column 12) inoculum were included in each microtiter plate. Depending on the bacteria type, approximately 10 to 60 CFU per well of bacteria inoculum (100 TCID50), in a volume of 100 μl in 2.8× Mueller-Hinton broth medium, was added to the rows A to H, except column 12. The same volume of broth medium without inoculum was added to column 12 in row A to H. The cultures were incubated at 37° C. for 24 hours under a normal atmosphere (incubator with open air valve and continuous ventilation). At the end of incubation, one day after inoculation, the bacterial growth was quantitated fluorometrically. Therefore resazurin (0.6 mg/ml) was added in a volume of 20 μl to all wells 3 hours after inoculation, and the plates were re-incubated overnight. A change in colour from blue to pink indicated the growth of bacteria. The fluorescence was read in a computer-controlled fluorometer (Cytofluor Biosearch) at an excitation wavelength of 530 nm and an emission wavelength of 590 nm. The % growth inhibition achieved by the compounds was calculated according to standard methods. The IC90 (expressed in μg/ml) was defined as the 90% inhibitory concentration for bacterial growth.

[2] = system: STA 29213 (Staphylococcus aureus (ATCC29213)); assay: Microtitre plate assay, IC90 determination; assay type: cell-based; settings: for IC90 (μg/ml) STA 29213: Staphylococcus aureus (ATCC29213); for IC90: Staphylococcus aureus, ATCC29213, Staphylococcus aureus (ATCC29213), read-out: IC90 (μg/ml) STA 29213
Method: as §1, §2

Structure (SMILES)	IC90 (μg/ml) SPN 6305 [1]	IC90 (μg/ml) STA 29213 [2]	IC90 [1]	IC90 [2]
COc1nc2ccc(Br)cc2cc1C(c1ccccc1)C(O)(CCCCN1CCCCC1)c1ccccc1 (single isomer, unassigned) [Compound 99]	2.04 µg/mL (≈ 3.56 µM)	1.81 µg/mL (≈ 3.16 µM)		
CN(C)CCCCC(O)(c1ccc2ccccc2c1)C(c1ccccc1)c1cc2cc(Br)ccc2nc1N1CCOCC1 (stereo not drawn) [Compound 177]	4.52 µg/mL (≈ 7.08 µM)	4.52 µg/mL (≈ 7.08 µM)		
COc1nc2ccc(Br)cc2cc1C(c1ccccc1)C(O)(CCCCN1CCN(C)CC1)c1ccc2ccccc2c1 (single isomer, unassigned) [Compound 113]	2.54 µg/mL (≈ 3.98 µM)	14.3 µg/mL (≈ 22.4 µM)		
COc1nc2ccc(Br)cc2cc1C(c1ccccc1)C(O)(CCCCN(C)Cc1ccccc1)c1ccccc1 (stereo not drawn) [Compound 61]			5.43 µg/mL (≈ 8.91 µM)	
COc1nc2ccc(Br)cc2cc1C(c1cccc(Cl)c1)C(O)(CCCCN(C)C)c1ccc2ccccc2c1 (single isomer, unassigned) [Compound 163]	0.31 µg/mL (≈ 0.502 µM)	1 µg/mL (≈ 1.62 µM)		
COc1nc2ccccc2cc1C(c1cccc(Br)c1)C(O)(CCCCN(C)C)c1ccc2ccccc2c1 (single isomer, unassigned) [Compound 162]	2.07 µg/mL (≈ 3.55 µM)	1.85 µg/mL (≈ 3.17 µM)		
COc1nc2ccc(Br)cc2cc1C(c1ccccc1)C(O)(CCCCN(C)C)c1cc(F)cc(F)c1 (stereo not drawn) [Compound 12]	11.4 µg/mL (≈ 20 µM)	45.2 µg/mL (≈ 79.4 µM)		
COc1nc2ccccc2cc1C(c1ccc(Br)cc1)C(O)(CCCCN(C)C)c1ccc2ccccc2c1 (stereo not drawn) [Compound 65]	2.32 µg/mL (≈ 3.98 µM)	1.85 µg/mL (≈ 3.17 µM)		
COc1nc2ccc(Br)cc2cc1C(c1ccccc1)C(O)(CCCCN(C)C)CCc1ccco1 (single isomer, unassigned) [Compound 129]	1.74 µg/mL (≈ 3.15 µM)	6.19 µg/mL (≈ 11.2 µM)		
COc1nc2ccc(Br)cc2cc1C(c1ccccc1)C(O)(CCCCN1CCCCC1)c1ccccc1 (single isomer, unassigned) [Compound 101]	9.09 µg/mL (≈ 15.8 µM)	9.09 µg/mL (≈ 15.8 µM)		
COc1nc2ccc(Br)cc2cc1C(c1ccccc1)C(O)(CCCCN1CCOCC1)c1ccccc1 (single isomer, unassigned) [Compound 114]	7.25 µg/mL (≈ 12.6 µM)			
COc1nc2ccc(Br)cc2cc1C(c1ccccc1)C(O)(CCCCN1CCC(C)CC1)c1ccc2ccccc2c1 (racemic) [Compound 103]	0.4 µg/mL (≈ 0.627 µM)	1.8 µg/mL (≈ 2.82 µM)		
CNCCCCCC(O)(c1ccccc1)C(c1ccccc1)c1cc2cc(C)ccc2nc1OC (single isomer, unassigned) [Compound 151]	2.12 µg/mL (≈ 4.52 µM)	1.7 µg/mL (≈ 3.63 µM)		
COc1nc2ccc(Br)cc2cc1C(c1ccccc1)C(O)(CCCCCN(C)C)c1ccc2ccccc2c1 (stereo not drawn) [Compound 58]	1.9 µg/mL (≈ 3.18 µM)	4.2 µg/mL (≈ 7.03 µM)		
COc1nc2ccc(Br)cc2cc1C(c1ccc(Cl)cc1)C(O)(CCCCN1CCCCC1)c1ccc(C)cc1 (single isomer, unassigned) [Compound 171]	4.94 µg/mL (≈ 7.94 µM)	22.07 µg/mL (≈ 35.5 µM)		
COc1nc2ccc(Br)cc2cc1C(c1ccccc1)C(O)(CCCCN1CCN(C)CC1)CCC1CCCCC1 (single isomer, unassigned) [Compound 125]	4.95 µg/mL (≈ 7.95 µM)	9.87 µg/mL (≈ 15.9 µM)		
COc1nc2ccc(-c3cccnc3)cc2cc1C(c1ccccc1)C(O)(CCCCN(C)C)c1ccccc1 (stereo not drawn) [Compound 43]				21.2 µg/mL (≈ 39.9 µM)
COc1nc2ccccc2cc1C(c1cccc(Br)c1)C(O)(CCCCN(C)C)c1ccc2ccccc2c1 (single isomer, unassigned) [Compound 160]	2.07 µg/mL (≈ 3.55 µM)	1.85 µg/mL (≈ 3.17 µM)		
COc1nc2ccc(Br)cc2cc1C(c1ccccc1)C(O)(CCCCCN(C)C)c1ccccc1 (single isomer, unassigned) [Compound 155]	1.7 µg/mL (≈ 3.1 µM)	1.7 µg/mL (≈ 3.1 µM)		
COc1nc2ccc(Br)cc2cc1C(c1ccccc1)C(O)(CCCCN1CCCC1)c1ccccc1 (racemic) [Compound 93]	9.95 µg/mL (≈ 17.8 µM)	11.16 µg/mL (≈ 19.9 µM)		
COc1nc2ccc(Br)cc2cc1C(c1ccccc1)C(O)(CCCCN1CCCCC1)c1ccccc1 (single isomer, unassigned) [Compound 100]	11.44 µg/mL (≈ 19.9 µM)	9.09 µg/mL (≈ 15.8 µM)		

Structure (SMILES)	IC90 (μg/ml) SPN 6305 [1]	IC90 (μg/ml) STA 29213 [2]	IC90 [1]	IC90 [2]
COc1ccc(C(c2cc3cc(Br)ccc3nc2OC)C(O)(CCCCN2CCCCC2)c2ccc(OC)cc2)cc1 (single isomer, unassigned) [Compound 169]	2.52 µg/mL (≈ 3.98 µM)	4 µg/mL (≈ 6.31 µM)		
COc1nc2ccc(Br)cc2cc1C(c1ccc(Cl)cc1)C(O)(CCCCN(C)C)c1ccc2ccccc2c1 (single isomer, unassigned) [Compound 164]	0.31 µg/mL (≈ 0.502 µM)	1.4 µg/mL (≈ 2.27 µM)		
COc1nc2ccc(Br)cc2cc1C(c1ccccc1)C(O)(CCCCN(C)C)c1cc(F)ccc1F (stereo not drawn) [Compound 14]	57.0 µg/mL (≈ 100 µM)			14.3 µg/mL (≈ 25.1 µM)
COc1nc2ccc(Br)cc2cc1C(c1ccccc1)C(O)(CCCCN1CCCCC1)c1ccccc1 (racemic) [Compound 94]	1.81 µg/mL (≈ 3.16 µM)	4.06 µg/mL (≈ 7.08 µM)		
CN(C)CCCCC(O)(c1ccc2ccccc2c1)C(c1ccccc1)c1cc2cc(Br)ccc2nc1N1CCOCC1 (stereo not drawn) [Compound 178]		2.02 µg/mL (≈ 3.16 µM)	2.27 µg/mL (≈ 3.55 µM)	
COc1nc2cc(C)ccc2cc1C(c1ccccc1)C(O)(CCCCN(C)C)c1ccc2ccccc2c1 (single isomer, unassigned) [Compound 78]		1.84 µg/mL (≈ 3.55 µM)		
COc1nc2ccc(Br)cc2cc1C(c1ccccc1)C(O)(CCCCN(C)C)c1ccc2c(c1)OCO2 (stereo not drawn) [Compound 10]			10.3 µg/mL (≈ 17.8 µM)	11.5 µg/mL (≈ 19.9 µM)
COc1nc2cc(C)ccc2cc1C(c1ccccc1)C(O)(CCCCN(C)C)c1ccc2ccccc2c1 (single isomer, unassigned) [Compound 77]	1.84 µg/mL (≈ 3.55 µM)	1.84 µg/mL (≈ 3.55 µM)		
COc1nc2ccc(Br)cc2cc1C(c1ccccc1)C(O)(CCCCN1CCN(C)CC1)CCc1cccc2ccccc12 (single isomer, unassigned) [Compound 143]	10.57 µg/mL (≈ 15.9 µM)	10.57 µg/mL (≈ 15.9 µM)		
COc1ccc(C(c2cc3cc(Br)ccc3nc2OC)C(O)(CCCCN2CCCCC2)c2ccccc2)cc1 (single isomer, unassigned) [Compound 165]	1.91 µg/mL (≈ 3.16 µM)	3.81 µg/mL (≈ 6.31 µM)		
COc1ccc(C(O)(CCCCN2CCCCC2)C(c2ccccc2)c2cc3cc(Br)ccc3nc2OC)cc1 (racemic) [Compound 97]	1.91 µg/mL (≈ 3.16 µM)	1.91 µg/mL (≈ 3.16 µM)		
COc1nc2ccc(Br)cc2cc1C(c1ccc(Cl)cc1)C(O)(CCCCN1CCN(C)CC1)CCC1CCCCC1 (single isomer, unassigned) [Compound 174]	8.27 µg/mL (≈ 12.6 µM)	10.41 µg/mL (≈ 15.8 µM)		
COc1nc2ccc(Br)cc2cc1C(c1ccccc1)C(O)(CCCCN1CCN(C)CC1)c1ccccc1 (single isomer, unassigned) [Compound 109]	5.25 µg/mL (≈ 8.92 µM)	9.33 µg/mL (≈ 15.9 µM)		
COc1nc2ccccc2cc1C(c1cccc(Br)c1)C(O)(CCCCN(C)C)c1ccc2ccccc2c1 (single isomer, unassigned) [Compound 161]	2.07 µg/mL (≈ 3.55 µM)	1.85 µg/mL (≈ 3.17 µM)		
COc1nc2ccc(Cl)cc2cc1C(c1ccccc1)C(O)(CCCCN(C)C)c1ccc2ccccc2c1 (racemic) [Compound 79]	2.7 µg/mL (≈ 5.01 µM)	2.15 µg/mL (≈ 3.99 µM)		
COc1nc2ccc(Br)cc2cc1C(c1ccccc1)C(O)(CCCCN(C)C)CC(C)C (racemic) [Compound 117]	2.29 µg/mL (≈ 4.46 µM)	9.13 µg/mL (≈ 17.8 µM)		
COc1nc2ccc(Br)cc2cc1C(c1ccccc1)C(O)(CCCCc1ccccc1)CCCCN(C)C (single isomer, unassigned) [Compound 147]	9.34 µg/mL (≈ 15.8 µM)	9.34 µg/mL (≈ 15.8 µM)		
COc1nc2ccc(Br)cc2cc1C(c1ccccc1)C(O)(CCCCN1CCOCC1)c1ccccc1 (single isomer, unassigned) [Compound 115]	2.29 µg/mL (≈ 3.98 µM)			
COc1nc2ccc(Br)cc2cc1C(c1ccccc1)C(O)(CCCCN(C)C)Cc1ccccc1 (single isomer, unassigned) [Compound 128]		1.73 µg/mL (≈ 3.16 µM)		
COc1nc2ccc(Br)cc2cc1C(c1ccccc1)C(O)(CCCCN(C)Cc1ccccc1)c1ccccc1 (stereo not drawn) [Compound 60]	5.4 µg/mL (≈ 8.86 µM)			

Source: patent publication US8841321B2, “Quinoline derivatives as antibacterial agents” (Janssen Pharmaceutica NV, priority 2005, dated 2014)
